# Assay results: patent US10258557B2, “Peptide for stimulating melanogenesis” (priority 2017, dated 2019)
# Where a SMILES comes first, the peptide text is derived from it.
# Test system: B16F10 cells
# Assay: MTT assay, cell viability
# Type: cell-based, mouse
# Conditions: different concentrations, 24, 48 or 72 hours
# Procedure: B16F10 is a melanoma cell line isolated from mouse skin (American Type Culture Collection, USA) and was cultured in phenol red-free Dulbecco's Modified Eagle Medium (DMEM) containing 10% (v/v) FBS and penicillin/streptomycin (100 IU/[…]) in 5% CO2 at 37° C.
# The cells (2×10^3) in 100 μl complete DMEM were seeded in 96-well plates and treated with the peptide of SEQ ID NO: 1 at different concentrations. The cells treated with ddH2O was used as controls. Ten microliters of 5 mg/ml 3-(4,5-dimethyl-2-thiazolyl)-2,5-diphenyl-2H-tetrazolium bromide solution (MTT; Sigma) was added to each well and incubated at 37° C. for 3 hours. After that, 100 μl 10% SDS in 0.01N HCl was added to dissolve the MTT formazan crystals. The resultant optical density was measured by spectrophotometry at dual wavelengths, 550 and 630 nm.
smiles,measurement,setting,value
"C[C@H](NC(=O)[C@H](CO)NC(=O)[C@@H](N)CC(N)=O)C(=O)N[C@H](C(=O)N[C@@H](CCC(=O)O)C(=O)N[C@@H](CCCNC(=N)N)C(=O)N[C@@H](CCC(=O)O)C(=O)O)[C@@H](C)O [peptide of SEQ ID NO: 1, AsnSerAlaThrGluArgGlu] (H-NSATERE-OH)",cell viability (MTT),FIG. 3,did not significantly affect the viability
same,cell viability (MTT),"FIG. 3, listed as peptide having the amino acid sequence of SEQ ID NO: 1",did not significantly affect viability
